Assay results: PubChem BioAssay (NCI)
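Dose response: 5 concentrations. Exposure: 48 h. Format: 96-well plates. Endpoint: linear interpolation; highest concentration if not reached. TGI marks complete inhibition of growth.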

Experiments:
Assay in all cases: NCI-60 cell line screen, 48 h
ACHN renal = system: ACHN renal
NCI-H226 lung = system: NCI-H226 lung
NCI-H23 lung = system: NCI-H23 lung
SF-268 CNS = system: SF-268 CNS
SN12C renal = system: SN12C renal
786-0 renal = system: 786-0 renal
OVCAR-3 ovarian = system: OVCAR-3 ovarian
UO-31 renal = system: UO-31 renal
RPMI-8226 leukemia = system: RPMI-8226 leukemia
UACC-257 melanoma = system: UACC-257 melanoma
RXF 393 renal = system: RXF 393 renal
M19-MEL melanoma = system: M19-MEL melanoma
SF-295 CNS = system: SF-295 CNS
CAKI-1 renal = system: CAKI-1 renal
M14 melanoma = system: M14 melanoma
HL-60(TB) leukemia = system: HL-60(TB) leukemia
OVCAR-8 ovarian = system: OVCAR-8 ovarian
HCC-2998 colon = system: HCC-2998 colon
LOX IMVI melanoma = system: LOX IMVI melanoma
A498 renal = system: A498 renal
DMS 273 small cell lung = system: DMS 273 small cell lung
KM12 colon = system: KM12 colon
OVCAR-5 ovarian = system: OVCAR-5 ovarian
SW-620 colon = system: SW-620 colon
HOP-92 NSCLC = system: HOP-92 NSCLC
MOLT-4 leukemia = system: MOLT-4 leukemia
KM20L2 colon = system: KM20L2 colon
DMS 114 small cell lung = system: DMS 114 small cell lung
SK-MEL-5 melanoma = system: SK-MEL-5 melanoma
COLO 205 colon = system: COLO 205 colon
SK-MEL-28 melanoma = system: SK-MEL-28 melanoma
IGROV1 ovarian = system: IGROV1 ovarian
OVCAR-4 ovarian = system: OVCAR-4 ovarian
EKVX NSCLC = system: EKVX NSCLC
U251 CNS = system: U251 CNS
SK-MEL-2 melanoma = system: SK-MEL-2 melanoma
HCT-116 colon = system: HCT-116 colon
NCI-H460 lung = system: NCI-H460 lung
SF-539 CNS = system: SF-539 CNS
SNB-19 CNS = system: SNB-19 CNS
HCT-15 colon = system: HCT-15 colon
UACC-62 melanoma = system: UACC-62 melanoma
CCRF-CEM leukemia = system: CCRF-CEM leukemia
HT29 colon = system: HT29 colon
K-562 leukemia = system: K-562 leukemia
SNB-78 CNS = system: SNB-78 CNS
A549 NSCLC = system: A549 NSCLC
LXFL 529 NSCLC = system: LXFL 529 NSCLC
DLD-1 colon = system: DLD-1 colon
MALME-3M melanoma = system: MALME-3M melanoma
SNB-75 CNS = system: SNB-75 CNS
DU-145 prostate = system: DU-145 prostate
TK-10 renal = system: TK-10 renal
T-47D breast = system: T-47D breast
HS 578T breast = system: HS 578T breast
PC-3 prostate = system: PC-3 prostate
BT-549 breast = system: BT-549 breast
NCI-H522 lung = system: NCI-H522 lung
SR leukemia = system: SR leukemia
SK-OV-3 ovarian = system: SK-OV-3 ovarian
MDA-MB-231 breast = system: MDA-MB-231 breast
MDA-N = system: MDA-N
MCF7 breast = system: MCF7 breast
NCI/ADR-RES ovarian = system: NCI/ADR-RES ovarian
MDA-MB-435 = system: MDA-MB-435
HOP-62 NSCLC = system: HOP-62 NSCLC

Cc1cc(N(CCC#N)CCC#N)ccc1/C=C(\NC(=O)/C=C/c1ccccc1)C(=O)Nc1ccccc1Cl
TGI (ACHN renal): > 100 µM
TGI (NCI-H226 lung): > 100 µM
TGI (NCI-H23 lung): > 100 µM
TGI (SF-268 CNS): > 100 µM
TGI (SN12C renal): > 100 µM
TGI (786-0 renal): > 100 µM
TGI (OVCAR-3 ovarian): > 100 µM
TGI (UO-31 renal): > 100 µM
TGI (RPMI-8226 leukemia): > 100 µM
TGI (UACC-257 melanoma): > 100 µM
TGI (RXF 393 renal): > 100 µM
TGI (M19-MEL melanoma): > 100 µM
TGI (SF-295 CNS): > 100 µM
TGI (CAKI-1 renal): > 100 µM
TGI (M14 melanoma): > 100 µM
TGI (HL-60(TB) leukemia): > 100 µM
TGI (OVCAR-8 ovarian): > 100 µM
TGI (HCC-2998 colon): > 100 µM
TGI (LOX IMVI melanoma): > 100 µM
TGI (A498 renal): > 100 µM
TGI (DMS 273 small cell lung): > 100 µM
TGI (KM12 colon): > 100 µM
TGI (OVCAR-5 ovarian): > 100 µM
TGI (SW-620 colon): > 100 µM
TGI (HOP-92 NSCLC): 94.5 µM
TGI (MOLT-4 leukemia): > 100 µM
TGI (KM20L2 colon): > 100 µM
TGI (DMS 114 small cell lung): > 100 µM
TGI (SK-MEL-5 melanoma): > 100 µM
TGI (COLO 205 colon): > 100 µM
TGI (SK-MEL-28 melanoma): > 100 µM
TGI (IGROV1 ovarian): > 100 µM
TGI (OVCAR-4 ovarian): > 100 µM
TGI (EKVX NSCLC): > 100 µM
TGI (U251 CNS): > 100 µM
TGI (SK-MEL-2 melanoma): > 100 µM
TGI (HCT-116 colon): > 100 µM
TGI (NCI-H460 lung): > 100 µM
TGI (SF-539 CNS): > 100 µM
TGI (SNB-19 CNS): > 100 µM
TGI (HCT-15 colon): > 100 µM
TGI (UACC-62 melanoma): > 100 µM
TGI (CCRF-CEM leukemia): > 100 µM
TGI (HT29 colon): > 100 µM
TGI (K-562 leukemia): > 100 µM
TGI (SNB-78 CNS): > 100 µM
TGI (A549 NSCLC): > 100 µM
TGI (LXFL 529 NSCLC): > 100 µM
TGI (DLD-1 colon): > 100 µM
TGI (MALME-3M melanoma): > 100 µM

Cc1ccc(C2=CC(=O)/C(=C\C(=O)c3ccc(Br)cc3)O2)c(C)c1
TGI (ACHN renal): 12.3 µM
TGI (SNB-75 CNS): 28.2 µM
TGI (DU-145 prostate): > 69.5 µM
TGI (NCI-H226 lung): 30.8 µM
TGI (NCI-H23 lung): 56.9 µM
TGI (SF-268 CNS): 31.5 µM
TGI (TK-10 renal): 15.9 µM
TGI (T-47D breast): 43.1 µM
TGI (SN12C renal): > 21.8 µM
TGI (786-0 renal): 16 µM
TGI (HS 578T breast): 61.8 µM
TGI (OVCAR-3 ovarian): 16.1 µM
TGI (UO-31 renal): 27.7 µM
TGI (RPMI-8226 leukemia): 10 µM
TGI (UACC-257 melanoma): > 48.6 µM
TGI (PC-3 prostate): 11.6 µM
TGI (RXF 393 renal): 14.1 µM
TGI (SF-295 CNS): > 54.2 µM
TGI (CAKI-1 renal): 9.79 µM
TGI (M14 melanoma): 35.3 µM
TGI (BT-549 breast): 16.2 µM
TGI (HL-60(TB) leukemia): > 100 µM
TGI (OVCAR-8 ovarian): 19 µM
TGI (HCC-2998 colon): 25.4 µM
TGI (LOX IMVI melanoma): > 21.1 µM
TGI (NCI-H522 lung): 3.38 µM
TGI (A498 renal): 39.4 µM
TGI (KM12 colon): 48.6 µM
TGI (OVCAR-5 ovarian): 56.7 µM
TGI (SR leukemia): 12.6 µM
TGI (HOP-92 NSCLC): 19.4 µM
TGI (MOLT-4 leukemia): > 47.9 µM
TGI (SK-OV-3 ovarian): 29 µM
TGI (MDA-MB-231 breast): 26.8 µM
TGI (SK-MEL-5 melanoma): 41.5 µM
TGI (COLO 205 colon): 14.3 µM
TGI (SK-MEL-28 melanoma): 40.1 µM
TGI (MDA-N): 19.9 µM
TGI (IGROV1 ovarian): 40.4 µM
TGI (OVCAR-4 ovarian): 23.9 µM
TGI (EKVX NSCLC): > 67.7 µM
TGI (U251 CNS): 43.9 µM
TGI (SK-MEL-2 melanoma): > 100 µM
TGI (HCT-116 colon): 19.8 µM
TGI (NCI-H460 lung): 69.2 µM
TGI (SF-539 CNS): 57.1 µM
TGI (MCF7 breast): 23.8 µM
TGI (SNB-19 CNS): > 49.1 µM
TGI (NCI/ADR-RES ovarian): 29.4 µM
TGI (HCT-15 colon): 36.9 µM
TGI (UACC-62 melanoma): 22.7 µM
TGI (MDA-MB-435): 38.7 µM
TGI (HOP-62 NSCLC): > 66.7 µM
TGI (CCRF-CEM leukemia): > 100 µM
TGI (HT29 colon): 17.6 µM
TGI (K-562 leukemia): 16.4 µM
TGI (A549 NSCLC): 48.4 µM
TGI (MALME-3M melanoma): 21.3 µM
